# Laboratory results taken from US20100190856A1, “Novel Polyhydroxylated Compounds as Fatty Acid Synthase (FASN) Inhibitors” (UNIVERSIDAD COMPLUTENSE DE MADRID, priority 2007, published 2010).
# Entries after “also recorded” stand apart in the source; their conditions may differ. Like-named read-outs stand apart in the source and are kept apart here.
# How the values were obtained:
# [1] = Weight loss in vivo (data not shown)
# [2] = test system: MCF-7 breast cancer cells; assay: MTT cytotoxicity assay, MCF-7 breast cancer cells; assay type: cell-based, human; conditions: Homo sapiens, MCF7, MCF-7 cells, 48 h, read-out: IC50, growth inhibition, MCF-7
# Description: (§1) MCF-7 and MDA-MB-231 breast cancer cells were obtained from the American Type Culture Collection (ATCC) and were routinely grown in Dulbecco's modified Eagle's medium (DMEM, Gibco) containing 10% fetal bovine serum (FBS, Bio-Whittaker), 1% L-glutamine, 1% sodium pyruvate, 50 U/mL penicillin and 50 μg/mL streptomycin. SK-Br3 breast cancer cells were obtained from Eucellbank (Universidad de Barcelona, Spain) and were passaged in McCoy's 5 A medium containing 10% FBS, 1% L-glutamine, 1% sodium pyruvate, 50 U/mL penicillin and 50 μg/mL streptomycin. Non-malignant fibroblasts N-1 were obtained from Eucellbank (Universidad de Barcelona, Spain) and were passaged in DMEM medium containing 10% FBS, 1% L-glutamine, 1% sodium pyruvate, 50 U/mL penicillin and 50 μg/mL streptomycin. The cells remained free of Mycoplasma and were propagated in adherent culture according to established protocols. Cells were maintained at 37° C. in a humidified atmosphere of 95% air and 5% CO2.
# (§2) Drug sensitivity was determined using a standard colorimetric MTT (3-4,5-dimethylthiazol-2-yl-2,5-diphenyltetrazolium bromide) assay. Briefly, cells were plated out at a density of 7×10^3 cells/100 μL/well in 96-well microtitre plates and allowed an overnight period for attachment. Then the medium was removed and fresh medium along with various concentrations of the tested compound were added to the cultures for a period of 48 h. Following the treatment, the cells were fed with drug-free medium (100 μL/well) and 10 μL of MTT solution (5 mg/mL; Sigma, St. Louis, Mo.), and the incubation was prolonged for 3 h at 37° C. After carefully removing the supernatants, the MTT-formazan crystals formed by metabolically viable cells were dissolved in dimethyl sulphoxide (100 μL/well) and the absorbance was measured at 570 nm in a multi-well plate reader (Model Anthos Labtec 2010 1.7 reader).
# [3] = test system: SK-Br3 breast cancer cells; assay: MTT cytotoxicity assay, SK-Br3 breast cancer cells; assay type: cell-based, human; conditions: for IC50: MTT, 48 h, read-out: IC50, growth inhibition, SK-Br3
# Description: as §1, §2
# [4] = test system: MDA-MB-231 breast cancer cells; assay: MTT cytotoxicity assay, MDA-MB-231 breast cancer cells; assay type: cell-based, human; conditions: Homo sapiens, MDA-MB-231 cells, 48 h, read-out: IC50, growth inhibition, MDA-MB-231
# Description: as §1, §2
# ERK1/2 = assay: Immunoblot analysis of ERK1/2 and phospho-ERK1/2 in SK-Br3 cells; assay type: cell-based, human; conditions: for activation of p-ERK1/2 proteins: SK-Br3, 30 μM, 6 h after treatment; for active form of ERK1/2: within 2 h after treatment
# Description: (§3) Following the treatment of SK-Br3 cells with the studied compound at the desired concentrations and time intervals, cells were harvested by treatment with trypsin-EDTA solution, washed twice with PBS and stored at −80° C. The cells were lysed in lysis buffer (1 mM EDTA, 150 mM NaCl, 100 μg/mL PMSF and 50 mM Tris-HCl, pH 7.5) and kept at 4° C. while they were routinely mixed every 2 min on the vortex during 30 min. A sample was taken for measurement of protein content by a BioRad assay (Bio-Rad Laboratories). Equal amounts of protein were heated in sodium dodecyl sulphate (SDS) sample buffer (Laemmli) for 5 min at 95° C., separated on a 3-8% SDS-polyacrylamide gel (FASN, p185^HER2/neu, phospho-p185^HER2/neu) or 4-12% SDS-polyacrylamide gel (AKT, phospho-AKT, ERK1/2, phospho-ERK1/2 and PARP) and transferred onto nitrocellulose membranes. The membranes were incubated for 1 h at room temperature in blocking buffer (2.5% powdered-skim milk in TBS-T [10 mM Tris-HCl pH 8.0, 150 mM NaCl and 0.05% Tween-20]) to prevent non-specific antibody binding. The primary antibody used was a monoclonal antibody. Antibody dilution was prepared in blocking solution and blots were incubated with monoclonal antibody overnight at 4° C. […] Blots were re-probed with an antibody for β-actin to control for protein loading and transfer.
# FASN = biological target: T1, FASN (Homo sapiens, UniProt P49327); assay: Fatty acid synthase activity assay in SK-Br3 cells (NADPH oxidation, particle-free supernatants); assay type: cell-based; parameters: FASN activity, % of control cells / FASN activity reduced to / reduction of FASN activity: concentration or dose not given beside the values; conditions: for inhibition of FASN activity (in words): SK-Br3 cells treated 6, 12 and 24 hours; for FASN activity, % of control cells: SK-Br3 cells, 24 h exposure
# T1 construct: endogenous in cells; host or cells: SK-Br3 breast cancer cells
# Description: FASN activity of compounds a, b, e, f, h, i, k, m and q was assayed in particle-free supernatants by recording spectrophotometrically at 37° C. (Lambda Bio 20, Perkin Elmer, EUA; using UV Kinlab 2.80.02 software) the decrease of A340nm due to the oxidation of NADPH, as we previously described. After 6, 12, 24 h of exposure to the tested compound, the cells were harvested by treatment with trypsin-EDTA solution, pelleted by centrifugation, washed twice and resuspended in cold PBS. The cells were sonicated during 30 min at 4° C. (PSelecta ultrasons) and centrifuged for 15 min at 4° C. to keep supernatants particle-free. A sample was taken to measure the protein content by a BioRad assay (Bio-Rad Laboratories). One-hundred and twenty micrograms of protein were pre-incubated during 15 min at 37° C. in 0.2 M of potassium phosphate buffer, pH 7.0, for temperature equilibration. The sample was then added to the reaction mixture: 200 mM potassium phosphate buffer, pH 7.0, 1 mM EDTA (Sigma), 1 mM dithiothreitol (Sigma), 30 μM acetyl-CoA (Sigma), 0.24 mM NADPH (Sigma), in 0.3 mL reaction volume were monitored at 340 nm for 3 min to measure the background NADPH oxidation. After the addition of 50 μM of malonyl-CoA (Sigma), the reaction was assayed for additional 10 min to determine FASN-dependent oxidation of NADPH. Rates were corrected for the background rate of NADPH oxidation in the presence of acetyl-CoA. FASN activity was expressed in nmol NADPH oxidized min^−1 mg protein^−1.
# [5] = test system: Non-malignant fibroblasts N-1; assay: MTT cytotoxicity assay, non-malignant fibroblasts N-1; assay type: cell-based; conditions: for IC50: Fibroblast, non-malignant fibroblasts, MTT, 48 h, read-out: IC50, growth inhibition, Fibroblasts; for effect on non-malignant cells / normal fibroblasts: at concentrations similar to IC50; for effects in cell death / morphology changes in non-malignant cells: up to doses three-fold their cytotoxic IC50 value in tumoral cells
# Description: as §1, §2
# PARP = assay: Immunoblot analysis of PARP cleavage in SK-Br3 cells; assay type: cell-based, human; conditions: for 89 KDa product of PARP cleavage: SK-Br3 cells, 30 μM, 12, 24 and 48 h
# Description: as §3
# Western blot analysis for poly-ADP-ribose polymerase (PARP) was performed on SK-Br3 cells exposed for 12, 24 and 48 h to compound f (30 μM) and compound i (30 μM). Apoptosis and induction of caspase activity was confirmed by Western blotting analysis showing cleavage of PARP.
# T1 sequence (P49327 whole entry): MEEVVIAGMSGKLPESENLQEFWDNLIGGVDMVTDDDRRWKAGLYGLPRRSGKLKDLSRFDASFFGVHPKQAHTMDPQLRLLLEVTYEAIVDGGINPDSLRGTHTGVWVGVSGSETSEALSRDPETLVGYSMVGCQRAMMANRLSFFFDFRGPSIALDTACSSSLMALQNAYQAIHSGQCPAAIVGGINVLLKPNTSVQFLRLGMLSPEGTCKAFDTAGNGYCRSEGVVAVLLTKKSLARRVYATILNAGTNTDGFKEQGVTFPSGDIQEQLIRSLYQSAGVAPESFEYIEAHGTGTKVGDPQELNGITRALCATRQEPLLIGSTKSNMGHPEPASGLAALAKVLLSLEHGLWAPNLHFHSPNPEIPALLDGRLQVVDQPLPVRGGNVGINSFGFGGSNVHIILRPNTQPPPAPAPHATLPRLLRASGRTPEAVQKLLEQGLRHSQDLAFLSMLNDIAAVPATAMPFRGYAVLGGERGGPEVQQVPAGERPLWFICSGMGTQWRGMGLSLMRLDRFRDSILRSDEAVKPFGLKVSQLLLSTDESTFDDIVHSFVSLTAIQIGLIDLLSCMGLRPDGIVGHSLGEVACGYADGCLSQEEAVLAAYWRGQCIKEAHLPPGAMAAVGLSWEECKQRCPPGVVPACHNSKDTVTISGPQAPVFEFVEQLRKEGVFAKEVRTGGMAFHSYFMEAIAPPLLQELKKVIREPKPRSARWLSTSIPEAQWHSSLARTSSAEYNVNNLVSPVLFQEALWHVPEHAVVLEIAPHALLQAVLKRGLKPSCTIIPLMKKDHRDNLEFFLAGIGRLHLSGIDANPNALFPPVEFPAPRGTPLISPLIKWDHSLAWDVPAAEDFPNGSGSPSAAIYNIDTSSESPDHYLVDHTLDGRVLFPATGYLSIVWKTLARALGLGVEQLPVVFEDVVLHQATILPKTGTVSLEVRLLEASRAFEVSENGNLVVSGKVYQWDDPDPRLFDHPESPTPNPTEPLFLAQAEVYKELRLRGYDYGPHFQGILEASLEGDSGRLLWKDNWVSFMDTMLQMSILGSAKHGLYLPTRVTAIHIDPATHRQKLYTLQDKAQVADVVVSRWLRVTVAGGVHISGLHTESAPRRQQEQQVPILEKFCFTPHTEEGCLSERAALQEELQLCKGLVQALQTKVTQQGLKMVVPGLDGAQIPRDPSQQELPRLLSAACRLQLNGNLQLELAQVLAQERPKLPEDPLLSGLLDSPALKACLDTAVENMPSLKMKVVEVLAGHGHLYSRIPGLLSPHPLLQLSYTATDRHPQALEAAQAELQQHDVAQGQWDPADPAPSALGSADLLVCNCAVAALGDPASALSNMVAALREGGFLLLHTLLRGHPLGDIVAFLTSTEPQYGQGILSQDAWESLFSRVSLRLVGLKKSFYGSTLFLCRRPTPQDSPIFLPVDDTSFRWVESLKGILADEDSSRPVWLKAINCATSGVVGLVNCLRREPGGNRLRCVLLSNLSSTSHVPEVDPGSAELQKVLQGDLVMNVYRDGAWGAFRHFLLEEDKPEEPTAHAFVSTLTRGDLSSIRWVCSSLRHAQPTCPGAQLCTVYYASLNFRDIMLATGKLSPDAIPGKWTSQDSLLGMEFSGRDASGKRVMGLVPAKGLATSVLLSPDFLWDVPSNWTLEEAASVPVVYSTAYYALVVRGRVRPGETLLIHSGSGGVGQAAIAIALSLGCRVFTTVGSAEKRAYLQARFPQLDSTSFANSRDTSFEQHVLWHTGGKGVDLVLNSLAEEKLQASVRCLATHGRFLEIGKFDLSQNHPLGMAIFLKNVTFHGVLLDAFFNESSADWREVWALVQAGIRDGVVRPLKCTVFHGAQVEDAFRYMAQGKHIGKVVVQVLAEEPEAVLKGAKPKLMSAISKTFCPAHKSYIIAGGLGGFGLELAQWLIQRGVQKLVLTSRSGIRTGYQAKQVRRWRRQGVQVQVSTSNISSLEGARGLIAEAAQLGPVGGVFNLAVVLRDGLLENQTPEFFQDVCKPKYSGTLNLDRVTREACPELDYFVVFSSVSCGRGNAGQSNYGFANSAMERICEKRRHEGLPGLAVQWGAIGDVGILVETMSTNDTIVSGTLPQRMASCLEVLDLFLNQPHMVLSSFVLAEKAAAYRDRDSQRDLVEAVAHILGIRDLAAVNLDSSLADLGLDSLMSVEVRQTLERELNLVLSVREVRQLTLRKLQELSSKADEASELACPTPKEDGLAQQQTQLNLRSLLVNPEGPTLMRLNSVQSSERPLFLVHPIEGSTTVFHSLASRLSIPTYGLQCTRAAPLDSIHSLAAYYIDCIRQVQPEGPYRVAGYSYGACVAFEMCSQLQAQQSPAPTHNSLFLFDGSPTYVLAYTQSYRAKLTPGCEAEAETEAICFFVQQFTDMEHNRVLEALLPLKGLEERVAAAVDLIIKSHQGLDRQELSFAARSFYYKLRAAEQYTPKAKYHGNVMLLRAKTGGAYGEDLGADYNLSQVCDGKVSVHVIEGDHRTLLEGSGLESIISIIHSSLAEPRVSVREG
Compound,weight loss in vivo [1],IC50 [2] [µM],relative IC50 ratio of EGCG to compound [3],"IC50 ([3]; Homo sapiens, SK-BR-3, 48 h) [µM]",IC50 [3] [µM],IC50 [4] [µM],activation of p-ERK1/2 proteins (ERK1/2),active form of ERK1/2 (ERK1/2),inhibition of FASN activity (in words) (FASN),"FASN activity, % of control cells (FASN) [%]",reduction of FASN activity (FASN; after 6 h of cell exposure) [%],reduction of FASN activity (FASN; after 24 h of cell exposure) [%],IC50 [5] [µM],effect on non-malignant cells / normal fibroblasts [5],effects in cell death / morphology changes in non-malignant cells [5],induction of apoptosis (cleavage of PARP) (PARP),89 KDa product of PARP cleavage (PARP)
"O=C(Oc1cc(OC(=O)c2cc(O)c(O)c(O)c2)c2ccccc2c1)c1cc(O)c(O)c(O)c1 [f, 1,3-bis[(3,4,5-trihydroxybenzoyl)oxy]naphthalene]",without inducing weight loss in vivo,46.3 ± 18,7.5,21.3 ± 6.7,20,78.7 ± 4,marked decrease,marked decrease,inhibit FASN activity; also recorded: decreased in a time-dependent manner,10±4,50,50,> 150,not affected,No significant effects,induced apoptosis,marked increase
"O=C(Oc1ccc(OC(=O)c2cc(O)c(O)c(O)c2)c2ccccc12)c1cc(O)c(O)c(O)c1 [i, 1,4-bis[(3,4,5-trihydroxybenzoyl)oxy]naphthalene]",without inducing weight loss in vivo,44.4 ± 16.3,5.4,28.7 ± 0.3,28,62.5 ± 10.6,marked decrease,marked decrease,inhibit FASN activity; also recorded: decreased in a time-dependent manner,31±16,50,50,> 150,not affected,No significant effects,induced apoptosis,marked increase
